One compound from patent US9738932B2, “Biomarkers for cardiovascular side-effects induced by cox-2 inhibitory compounds” (FIRALIS SAS, priority 2005, dated 2017) can be followed below.

Holding throughout (assay type): in vivo, cynomolgus monkey (Macaca fascicularis)
For data set [1], the system named is INFγ. The experiment in a line: ELISA of INFγ protein in monkey serum and plasma. The note with it: monkey #A60055. From the text:
FIG. 7. ELISA confirmation of INFγ protein level in monkey serum and plasma samples.
(§1) These peripheral biomarkers might allow safe use of cox-2 inhibitory compounds in clinics and selection of cox-2 inhibitory follow-up compounds without cardiovascular toxicity.
A general note: An ELISA detects its analyte on a solid surface through an enzyme-linked reagent.

The test system of data set [2] is CXCL10 (IP10). In words: ELISA of CXCL10 (IP10) protein in monkey serum and plasma. The conditions noted are these: monkey #A60055.
Excerpt: FIG. 6. ELISA confirmation of CXCL10 (IP10) protein level in monkey serum samples.
as §1

For data set [3], the system named is veins (vascular tissue). The experiment in a line: Histopathological evaluation of tissues of treated monkeys. The note with it: animal A60055, 50 mg/kg/day oral gavage, two weeks. From the text:
Administration of compounds.
Gene expression profiles.

Data set [4] deals with INFγ inducible proteins in serum and plasma. The experiment in a line: Rules-Based Medicine (RBM) human MAP multiplex protein profiling in serum and plasma. The note with it: monkey #A60055. The source says:
To obtain biomarkers predicting cardiovascular adverse effect of tested compounds/drugs, expression levels of proteins have been analysed in cynomolgus monkey serum and plasma from the present analysis using human Multi-Analyte Profile (MAP) Technology. Human MAP could be used to measure protein levels of more than 80 antigens in monkey serum and plasma (Rules-Based Medicine Inc (RBM®), Austin, Tex. USA).
Soluble proteins present in serum and plasma of the same monkeys have been measured using a multiplex assay produced by Rules-Based Medicine (RBM®) of Texas.

“Also recorded” adds a separate entry of the source.

Take `CS(=O)(=O)c1ccc(C2=C(c3ccccc3)C(=O)OC2)cc1` [Vioxx®, rofecoxib]: in data set [1], the “INFγ protein expression by ELISA” value was “Increased expression”. Moreover, the “CXCL10 chemokine protein expression by ELISA” value in data set [2] is listed as “Increased expression”. Moreover, the histopathological vascular findings result in data set [3] was “focal vascular necrosis in the veins; also recorded: clear sign of vasculitis in veins”. Also, in data set [4], the “level of INFγ inducible proteins in serum and plasma (multiplex assay)” value is reported as “increased level”.
